Experimental data as given in patent US12083124B2 (Incyte Corporation, priority 2019, dated 2024).
Where two headings read alike, the source gives them in different places.

Experiments:
[1] = target: wild-type un-phosphorylated FGFR3 (Homo sapiens, UniProt P22607); assay: FGFR Enzymatic Assay (FRET peptide phosphorylation), FGFR3
Procedure: (§1) The inhibitor potency of the exemplified compounds was determined in an enzyme discontinuous assay that measures peptide phosphorylation using FRET measurements to detect product formation. Inhibitors were serially diluted in DMSO and a volume of 0.2 μL was transferred to the wells of a 384-well plate. […] Appropriate controls (enzyme blank and enzyme with no inhibitor) were included on the plate. […] The 10 μL/well reaction concentration of the peptide substrate was 500 nM whereas the ATP concentration was maintained near or below the ATP Km. The ATP Km values were pre-determined in a separate series of experiments. The reaction plate was incubated at 25° C. for 1 hr and the reactions were ended with the addition of 5 μL/well of quench solution (50 mM Tris, 150 mM NaCl, 0.5 mg/mL BSA, pH 7.8; 45 mM EDTA, 600 nM staurosporin, with Perkin Elmer Lance Reagents at 3.75 nM Eu-antibody PY20 and 180 nM APC-Streptavidin). The plate was allowed to equilibrate for ˜10 minutes at ambient temperature before scanning on a PheraStar plate reader (BMG Labtech) instrument.
(§2) Either GraphPad prism or XLfit was used to analyze the data. The IC50 values were derived by fitting the data to a four parameter logistic equation producing a sigmoidal dose-response curve with a variable Hill coefficient. Prism equation: Y=Bottom+(Top-Bottom)/(1+10^((Log IC50-X)*Hill slope)); XLfit equation: Y=(A+((B−A)/(1+((X/C)^D)))) where X is the logarithm of inhibitor concentration and Y is the response.
(§3) GraphPad prism3 was used to analyze the data. The IC50 values were derived by fitting the data to the equation for a sigmoidal dose-response with a variable slope. Y=Bottom+(Top-Bottom)/(1+10^((Log IC50-X)*Hill Slope)) where X is the logarithm of concentration and Y is the response.

[2] = target: wild-type un-phosphorylated FGFR1 (Homo sapiens, UniProt P11362); assay: FGFR Enzymatic Assay (FRET peptide phosphorylation), FGFR1; settings: pre-incubated for 4 hours
[3] = target: wild-type un-phosphorylated FGFR4 (Homo sapiens, UniProt P22455); assay: FGFR Enzymatic Assay (FRET peptide phosphorylation), FGFR4
[4] = target: wild-type un-phosphorylated FGFR2 (Homo sapiens, UniProt P21802); assay: FGFR Enzymatic Assay (FRET peptide phosphorylation), FGFR2
Procedure: as §1, §2, §3
The data in Table 1 was measured in wild-type un-phosphorylated FGFR1, FGFR2, FGFR3, and FGFR4 proteins.

[5] = FGFR1, wild-type un-phosphorylated FGFR1
[6] = read-out: FGFR1, wild-type un-phosphorylated FGFR1
[7] = read-out: FGFR4, wild-type un-phosphorylated FGFR4, pre-incubated for 4 hours

Chain of wild-type un-phosphorylated FGFR3 (P22607 23-806): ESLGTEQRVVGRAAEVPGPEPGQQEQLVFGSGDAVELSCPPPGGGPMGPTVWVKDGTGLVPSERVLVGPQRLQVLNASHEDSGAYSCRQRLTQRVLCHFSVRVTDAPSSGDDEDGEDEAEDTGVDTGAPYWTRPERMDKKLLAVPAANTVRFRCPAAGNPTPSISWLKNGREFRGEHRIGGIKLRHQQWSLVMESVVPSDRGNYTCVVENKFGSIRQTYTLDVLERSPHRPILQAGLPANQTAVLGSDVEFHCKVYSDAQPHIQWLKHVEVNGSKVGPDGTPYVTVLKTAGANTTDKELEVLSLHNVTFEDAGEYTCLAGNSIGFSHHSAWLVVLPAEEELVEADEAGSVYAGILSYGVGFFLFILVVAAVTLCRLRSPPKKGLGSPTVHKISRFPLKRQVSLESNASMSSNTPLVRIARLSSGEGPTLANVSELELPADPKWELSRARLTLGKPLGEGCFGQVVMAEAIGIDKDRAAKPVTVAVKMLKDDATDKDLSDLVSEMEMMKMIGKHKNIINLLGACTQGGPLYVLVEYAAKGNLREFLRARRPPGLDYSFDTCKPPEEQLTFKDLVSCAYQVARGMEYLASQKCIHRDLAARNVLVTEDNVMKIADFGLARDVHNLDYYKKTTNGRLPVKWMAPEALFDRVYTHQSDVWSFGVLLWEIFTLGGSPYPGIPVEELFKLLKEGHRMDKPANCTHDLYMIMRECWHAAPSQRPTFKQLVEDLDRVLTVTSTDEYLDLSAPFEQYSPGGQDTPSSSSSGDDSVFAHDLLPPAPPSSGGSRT
Chain of wild-type un-phosphorylated FGFR2 (P21802 22-821): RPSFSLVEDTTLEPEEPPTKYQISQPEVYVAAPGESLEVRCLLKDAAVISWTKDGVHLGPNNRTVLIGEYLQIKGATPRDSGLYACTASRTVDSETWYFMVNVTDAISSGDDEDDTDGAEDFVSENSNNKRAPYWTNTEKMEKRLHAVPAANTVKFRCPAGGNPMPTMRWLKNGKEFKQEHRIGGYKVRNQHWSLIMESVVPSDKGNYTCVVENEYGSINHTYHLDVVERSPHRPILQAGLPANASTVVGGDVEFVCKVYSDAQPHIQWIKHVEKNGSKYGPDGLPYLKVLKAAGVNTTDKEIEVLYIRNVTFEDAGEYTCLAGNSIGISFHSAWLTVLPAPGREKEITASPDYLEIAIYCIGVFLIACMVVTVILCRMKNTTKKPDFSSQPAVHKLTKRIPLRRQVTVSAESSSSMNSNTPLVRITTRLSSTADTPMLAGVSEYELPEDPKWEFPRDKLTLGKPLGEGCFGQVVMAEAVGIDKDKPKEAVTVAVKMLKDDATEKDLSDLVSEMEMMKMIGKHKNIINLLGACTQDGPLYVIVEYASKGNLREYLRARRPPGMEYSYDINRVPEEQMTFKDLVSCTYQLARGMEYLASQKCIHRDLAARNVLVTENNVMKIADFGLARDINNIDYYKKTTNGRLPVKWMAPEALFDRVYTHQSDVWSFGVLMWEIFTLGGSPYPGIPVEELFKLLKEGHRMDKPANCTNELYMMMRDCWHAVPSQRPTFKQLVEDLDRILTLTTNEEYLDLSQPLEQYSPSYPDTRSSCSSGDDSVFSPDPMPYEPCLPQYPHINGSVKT
Chain of wild-type un-phosphorylated FGFR4 (P22455 22-802): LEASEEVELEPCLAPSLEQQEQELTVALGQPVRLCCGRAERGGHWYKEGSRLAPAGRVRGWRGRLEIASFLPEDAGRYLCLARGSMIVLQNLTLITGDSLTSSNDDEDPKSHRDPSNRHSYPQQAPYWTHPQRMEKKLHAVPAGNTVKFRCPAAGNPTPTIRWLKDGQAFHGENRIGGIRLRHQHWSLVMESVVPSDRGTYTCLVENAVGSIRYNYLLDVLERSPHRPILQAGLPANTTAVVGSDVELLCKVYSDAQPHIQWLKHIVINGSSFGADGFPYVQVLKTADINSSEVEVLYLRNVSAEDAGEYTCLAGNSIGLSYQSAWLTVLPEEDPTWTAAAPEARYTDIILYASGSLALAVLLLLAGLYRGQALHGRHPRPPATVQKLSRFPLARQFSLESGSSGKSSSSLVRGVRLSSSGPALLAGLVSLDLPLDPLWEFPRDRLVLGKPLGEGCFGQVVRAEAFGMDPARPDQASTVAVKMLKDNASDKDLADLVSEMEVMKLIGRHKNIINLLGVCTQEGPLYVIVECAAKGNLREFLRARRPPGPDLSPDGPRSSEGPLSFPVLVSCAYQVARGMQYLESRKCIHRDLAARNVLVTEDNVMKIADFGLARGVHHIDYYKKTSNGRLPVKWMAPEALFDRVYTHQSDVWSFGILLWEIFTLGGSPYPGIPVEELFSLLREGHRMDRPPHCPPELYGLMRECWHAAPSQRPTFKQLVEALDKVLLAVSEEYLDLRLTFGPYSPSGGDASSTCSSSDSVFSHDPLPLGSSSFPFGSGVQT
Chain of wild-type un-phosphorylated FGFR1 (P11362 22-822): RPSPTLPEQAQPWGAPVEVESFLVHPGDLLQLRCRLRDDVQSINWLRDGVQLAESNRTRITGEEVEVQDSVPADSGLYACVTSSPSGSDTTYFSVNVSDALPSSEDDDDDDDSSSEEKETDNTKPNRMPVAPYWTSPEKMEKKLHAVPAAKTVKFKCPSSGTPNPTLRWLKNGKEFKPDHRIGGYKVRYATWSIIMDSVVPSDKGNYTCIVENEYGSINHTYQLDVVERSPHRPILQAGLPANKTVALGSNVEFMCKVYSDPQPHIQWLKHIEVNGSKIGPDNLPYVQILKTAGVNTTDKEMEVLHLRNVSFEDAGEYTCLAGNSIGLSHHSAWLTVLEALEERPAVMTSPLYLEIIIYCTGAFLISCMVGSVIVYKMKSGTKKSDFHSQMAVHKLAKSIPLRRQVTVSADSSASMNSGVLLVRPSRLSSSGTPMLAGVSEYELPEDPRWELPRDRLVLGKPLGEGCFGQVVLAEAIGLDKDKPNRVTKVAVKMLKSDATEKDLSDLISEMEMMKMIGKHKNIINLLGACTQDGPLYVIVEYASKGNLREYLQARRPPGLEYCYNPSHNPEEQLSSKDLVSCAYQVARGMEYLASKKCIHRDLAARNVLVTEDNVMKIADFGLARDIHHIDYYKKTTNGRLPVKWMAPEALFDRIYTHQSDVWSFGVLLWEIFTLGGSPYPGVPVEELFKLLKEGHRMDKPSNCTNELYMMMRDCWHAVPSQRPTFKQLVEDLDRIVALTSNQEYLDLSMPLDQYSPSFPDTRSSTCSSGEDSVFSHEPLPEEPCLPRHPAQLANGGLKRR

SMILES	IC50 [1] [nM]	IC50 [2, 5] [nM]	IC50 [3] [nM]	IC50 [4] [nM]	IC50 [2, 6] [nM]	IC50 [3, 7] [nM]
COc1cc2[nH]nc(-c3cnn(C4CC(C#N)C4)c3)c2nc1-c1cccc2c1CCC2C#N (stereo not drawn) [Example 111, 4-(3-(1-(3-Cyanocyclobutyl)-1H-pyrazol-4-yl)-6-methoxy-1H-pyrazolo[4,3-b]pyridin-5-yl)-2,3-dihydro-1H-indene-1-carbonitrile]	< 6	< 6	40 to 100	< 6		
COCCOC(=O)N1CC(n2cc(-c3n[nH]c4cc(OC)c(-c5cccc6c5CCC6)nc34)cn2)C1 [Example 152, 2-Methoxyethyl 3-(4-(5-(2,3-dihydro-1H-inden-4-yl)-6-methoxy-1H-pyrazolo[4,3-b]pyridin-3-yl)-1H-pyrazol-1-yl)azetidine-1-carboxylate]	< 6	40 to 100	40 to 100	< 6		
COc1cc2[nH]nc(-c3cnn(C4CN(C(=O)[C@H]5CCOC5)C4)c3)c2nc1-c1cccc2c1CCC2 [Example 131, (S)-(3-(4-(5-(2,3-Dihydro-1H-inden-4-yl)-6-methoxy-1H-pyrazolo[4,3-b]pyridin-3-yl)-1H-pyrazol-1-yl)azetidin-1-yl)(tetrahydrofuran-3-yl)methanone]	< 6			< 6	6 to 40	6 to 40
CCN1CCN(c2ccc(-c3n[nH]c4cc(OC)c(-c5cccc6c5CCC6)nc34)cc2)CC1 [Example 63, 5-(2,3-Dihydro-1H-inden-4-yl)-3-(4-(4-ethylpiperazin-1-yl)phenyl)-6-methoxy-1H-pyrazolo[4,3-b]pyridine]	< 6		40 to 100	< 6	6 to 40	
COc1cc2[nH]nc(-c3ccc(C4CCN(C(=O)N5CCOCC5)C4)nc3)c2nc1-c1cccc2c1CCC2C#N (single isomer, unassigned) [Example 184, 4-(6-Methoxy-3-(6-(1-(morpholine-4-carbonyl)pyrrolidin-3-yl)pyridin-3-yl)-1H-pyrazolo[4,3-b]pyridin-5-yl)-2,3-dihydro-1H-indene-1-carbonitrile]	< 6			< 6	6 to 40	6 to 40
COc1cc2[nH]nc(-c3cnn(C4CN(C(=O)[C@H]5COCCN5C)C4)c3)c2nc1-c1cccc2c1CCC2 [Example 127, (R)-(3-(4-(5-(2,3-Dihydro-1H-inden-4-yl)-6-methoxy-1H-pyrazolo[4,3-b]pyridin-3-yl)-1H-pyrazol-1-yl)azetidin-1-yl)(4-methylmorpholin-3-yl)methanone]	< 6		40 to 100	< 6	6 to 40	
COC(=O)N1CC(n2cc(-c3n[nH]c4cc(OC)c(-c5cccc6c5CCC6)nc34)cn2)C1 [Example 21, Methyl 3-(4-(5-(2,3-dihydro-1H-inden-4-yl)-6-methoxy-1H-pyrazolo[4,3-b]pyridin-3-yl)-1H-pyrazol-1-yl)azetidine-1-carboxylate]	< 6	40 to 100	40 to 100	< 6		
COc1cc2[nH]nc(-c3ccc(C4CCN(C(=O)CO)CC4)nc3)c2nc1-c1cccc2c1CCC2C#N (stereo not drawn) [Example 115, 4-(3-(6-(1-(2-Hydroxyacetyl)piperidin-4-yl)pyridin-3-yl)-6-methoxy-1H-pyrazolo[4,3-b]pyridin-5-yl)-2,3-dihydro-1H-indene-1-carbonitrile]	< 6			< 6	6 to 40	6 to 40
COc1cc2[nH]nc(-c3cnn(C4CN(C)C4)c3)c2nc1-c1cccc2c1CCC2 [Example 17, 5-(2,3-Dihydro-1H-inden-4-yl)-6-methoxy-3-(1-(1-methylazetidin-3-yl)-1H-pyrazol-4-yl)-1H-pyrazolo[4,3-b]pyridine]	< 6	40 to 100	> 100	< 6		
